Tests used:
[1] = xn = mol fraction of the nth substance listed; conditions: 101 kPa, Liquid, Vibrating tube method
[2] = refractive index (Na D-line) (dimensionless); conditions: 101.33 kPa, Liquid, Standard Abbe refractometry
[3] = 101.33 kPa, Liquid, Vibrating tube method
[4] = excess molar enthalpy (molar enthalpy of mixing); xn = mol fraction of the nth substance listed; conditions: 101 kPa, Liquid, Calvet calorimetry

CCCCC [pentane] + CCCCOC=O
[1], x2 = 0
Conditions | mass density [kg/m3]
291.15 K | 627.86
298.15 K | 620.89

CCCCOC=O [butyl methanoate]
Conditions | mass density, [3] [kg/m3] | refractive index, [2]
291.15 K | 895.86 | 1.3904
298.15 K | 888.47 | 1.3872

CCOC=O [ethyl methanoate]
Conditions | mass density, [3] [kg/m3] | refractive index, [2]
291.15 K | 923.4 | 1.3614
298.15 K | 914.35 | 1.358

CCCOC=O [propyl methanoate]
Conditions | mass density, [3] [kg/m3] | refractive index, [2]
291.15 K | 907.97 | 1.3778
298.15 K | 899.86 | 1.3752

COC=O [methyl methanoate]
Conditions | mass density, [3] [kg/m3] | refractive index, [2]
291.15 K | 977.21 | 1.3452
298.15 K | 966.54 | 1.3415

CCCCC [pentane] + CCCOC=O
[1], x2 = 0
Conditions | mass density [kg/m3]
291.15 K | 627.86
298.15 K | 620.89

COC=O [methyl methanoate] + CCCCC
291.15 K
Conditions | excess molar enthalpy [kcal/mol] | mass density [kg/m3]
[1], x1 = 0.091 | – | 640.27
[1], x1 = 0.102 | – | 641.95
[1], x1 = 0.147 | – | 649.45
[1], x1 = 0.206 | – | 660.56
[1], x1 = 0.27 | – | 674.05
[1], x1 = 0.309 | – | 683.08
[1], x1 = 0.371 | – | 698.6
[1], x1 = 0.393 | – | 704.52
[1], x1 = 0.416 | – | 710.63
[1], x1 = 0.451 | – | 721.01
[1], x1 = 0.488 | – | 732.21
[1], x1 = 0.506 | – | 737.92
[1], x1 = 0.559 | – | 755.6
[1], x1 = 0.618 | – | 776.61
[1], x1 = 0.695 | – | 807.5
[1], x1 = 0.759 | – | 835.94
[1], x1 = 0.786 | – | 849.13
[1], x1 = 0.827 | – | 870.13
[1], x1 = 0.84 | – | 876.82
[1], x1 = 0.941 | – | 936.47
[1], x1 = 1 | – | 977.21
[4], x1 = 0.1107 | 0.1511 | –
[4], x1 = 0.2113 | 0.2758 | –
[4], x1 = 0.3055 | 0.3714 | –
[4], x1 = 0.3765 | 0.418 | –
[4], x1 = 0.438 | 0.4412 | –
[4], x1 = 0.4783 | 0.4484 | –
[4], x1 = 0.5268 | 0.4539 | –
[4], x1 = 0.5716 | 0.4503 | –
[4], x1 = 0.6028 | 0.4398 | –
[4], x1 = 0.6356 | 0.4264 | –
[4], x1 = 0.6702 | 0.4089 | –
[4], x1 = 0.7191 | 0.3817 | –
[4], x1 = 0.7683 | 0.3425 | –
[4], x1 = 0.8256 | 0.2882 | –
[4], x1 = 0.8773 | 0.2266 | –
[4], x1 = 0.9215 | 0.158 | –
[4], x1 = 0.9587 | 0.0827 | –

CCCCOC=O [butyl methanoate] + CCCCC
Conditions | excess molar enthalpy [kcal/mol] | mass density [kg/m3]
[1], 291.15 K, x1 = 0.0482 | – | 640.01
[1], 291.15 K, x1 = 0.1029 | – | 654.1
[1], 291.15 K, x1 = 0.1541 | – | 667.59
[1], 291.15 K, x1 = 0.2028 | – | 680.41
[1], 291.15 K, x1 = 0.2999 | – | 706.35
[1], 291.15 K, x1 = 0.3486 | – | 719.53
[1], 291.15 K, x1 = 0.453 | – | 747.88
[1], 291.15 K, x1 = 0.5029 | – | 761.43
[1], 291.15 K, x1 = 0.5974 | – | 786.96
[1], 291.15 K, x1 = 0.7 | – | 814.79
[1], 291.15 K, x1 = 0.8074 | – | 843.81
[1], 291.15 K, x1 = 0.8966 | – | 868.4
[1], 291.15 K, x1 = 0.9452 | – | 881.04
[1], 291.15 K, x1 = 1 | – | 895.86
[1], 298.15 K, x1 = 0.0584 | – | 635.57
[1], 298.15 K, x1 = 0.1147 | – | 650.09
[1], 298.15 K, x1 = 0.1936 | – | 670.91
[1], 298.15 K, x1 = 0.301 | – | 699.46
[1], 298.15 K, x1 = 0.343 | – | 710.8
[1], 298.15 K, x1 = 0.3886 | – | 723.15
[1], 298.15 K, x1 = 0.4521 | – | 740.45
[1], 298.15 K, x1 = 0.4958 | – | 752.3
[1], 298.15 K, x1 = 0.5442 | – | 765.49
[1], 298.15 K, x1 = 0.6477 | – | 793.55
[1], 298.15 K, x1 = 0.7529 | – | 822.18
[1], 298.15 K, x1 = 0.8993 | – | 861.53
[1], 298.15 K, x1 = 1 | – | 888.47
[4], 291.15 K, x1 = 0.0661 | 0.0774 | –
[4], 291.15 K, x1 = 0.1254 | 0.1231 | –
[4], 291.15 K, x1 = 0.1836 | 0.1594 | –
[4], 291.15 K, x1 = 0.2321 | 0.1862 | –
[4], 291.15 K, x1 = 0.2846 | 0.2041 | –
[4], 291.15 K, x1 = 0.3351 | 0.2141 | –
[4], 291.15 K, x1 = 0.3832 | 0.2196 | –
[4], 291.15 K, x1 = 0.4276 | 0.2208 | –
[4], 291.15 K, x1 = 0.4704 | 0.2187 | –
[4], 291.15 K, x1 = 0.5095 | 0.2156 | –
[4], 291.15 K, x1 = 0.5587 | 0.2084 | –
[4], 291.15 K, x1 = 0.6121 | 0.1965 | –
[4], 291.15 K, x1 = 0.6666 | 0.1781 | –
[4], 291.15 K, x1 = 0.7272 | 0.1522 | –
[4], 291.15 K, x1 = 0.799 | 0.118 | –
[4], 291.15 K, x1 = 0.8702 | 0.076 | –
[4], 291.15 K, x1 = 0.9372 | 0.0394 | –
[4], 298.15 K, x1 = 0.0471 | 0.0748 | –
[4], 298.15 K, x1 = 0.0941 | 0.13 | –
[4], 298.15 K, x1 = 0.1606 | 0.1769 | –
[4], 298.15 K, x1 = 0.2273 | 0.2079 | –
[4], 298.15 K, x1 = 0.2903 | 0.228 | –
[4], 298.15 K, x1 = 0.3523 | 0.238 | –
[4], 298.15 K, x1 = 0.4102 | 0.24 | –
[4], 298.15 K, x1 = 0.4611 | 0.2361 | –
[4], 298.15 K, x1 = 0.5095 | 0.2292 | –
[4], 298.15 K, x1 = 0.5166 | 0.2254 | –
[4], 298.15 K, x1 = 0.5673 | 0.2163 | –
[4], 298.15 K, x1 = 0.6237 | 0.202 | –
[4], 298.15 K, x1 = 0.6862 | 0.1773 | –
[4], 298.15 K, x1 = 0.754 | 0.1511 | –
[4], 298.15 K, x1 = 0.8174 | 0.1202 | –
[4], 298.15 K, x1 = 0.8803 | 0.0815 | –
[4], 298.15 K, x1 = 0.9477 | 0.0402 | –

Reference: the NIST ThermoML archive (doi:10.1016/j.fluid.2013.11.026)
